“And” between values parts separate entries of the source, which are not always exact repeats. Equal values may be shown once.
What was measured:
neovascularisation = assay: Mouse anti-angiogenesis assay (bFGF sponge implant); format: in vivo; conditions: for neovascularisation in mice (percent inhibition): Days 3-9
Protocol: NMRI female mice (SPF Bom:NMRI) weighing 25-27 g were obtained from M&B, Ejby, Lille Skensved, Denmark. They were housed in a facility where light was controlled on a 12 hour light-dark cycle. […] The animals were fed a pelleted rodent diet (Altromin 1324, Brogarden, Denmark) ad libitum and had free access to tap water. All animals were observed daily for clinical signs.
Slow-release pellets containing 400 ng of human basic fibroblast growth factor (Innovative Research of America, Florida, USA) were circular and with a diameter of 1.5 mm. The angiogenic peptide was guarantied by the supplier to be released over a period of 10 days.
The mice were anaesthetized using inhalation anaesthesia (halothane/N2O and oxygen). The skin of the back was shaved using an electric shaver and the skin was disinfected using 70% ethanol. A 5 mm incision was made transversely in close proximity to the shoulder blades and a 2 cm pocket reaching caudally to the pelvic region was created by blunt dissection, carefully separating the skin from the fascie. A polyurethane sponge with the dimension of 8×5×3 mm containing a slow-release pellet of 400 ng bFGF was placed at the caudal end of the pocket and the incision was closed by a single or double invert suture using Perma-Hand Seide 4/0 (Johnson & Johnson, Brussels, Belgium). The animals were treated by an analgesic subcutaneous injection of carprofen 2 mg/kg.
The angiogenic response was quantitated as previously described (Lichtenberg et al., 1997, 1999 & 2002). Briefly, twenty minutes before euthanasia 1 μCi of ^125I-labelled immuno-globulin (Amersham, UK) in 50 μl of 0.9% NaCl was injected intravenously into a tail vein. The animals were euthanised by O2/CO2 asphyxiation and the skin overlying the sponge implant was removed. The sponge implant with the pellet was placed in a plastic vial containing 4% formalin and the ^125I-activity was measured in a γ-counter. Differences in angiogenic response measured as ^125I-activity in cpm were assessed by Student's t-test, grouped data, with P<0.05 regarded as statistically significant. Data was expressed as means±SEM.
Three separate experiments were conducted: Two experiments were performed with Compound a and one experiment was performed with Compound b. In the first two experiments with Compound a, 3 groups each comprising 5 animals was treated orally with Compound a at the dose levels of 0 (saline), 5 and 10 mg/kg/day (experiment 1) and with 20 and 40 mg/kg/day (experiment 2). In the third experiment, 3 groups each comprising 6 animals was treated orally with the vehicle (saline) and 80 mg/kg/day of Compound a. In all experiments the animals were treated from Days 3-9 and killed at day 10.

HUVEC = assay: Cell morphology and proliferation assay; format: cell-based
Protocol: Cell Morphology and Proliferation Assay
One week before the assay, a vial with HUVEC (passage 1) was thawed and cultured (after a split ratio of 1:3) to confluence (passage 2). The confluent culture of HUVEC was detached by trypsin/EDTA solution, and allowed to adhere and spread at cell density of 10, 50 and 100% confluency on gelatine-coated dishes in M199-HEPES medium supplemented with 10% heat-inactivated NBCS, 10% human serum and penicillin/streptomycin. After 18 h the HUVEC were preincubated with the test compounds for 4 hours. Then the HUVEC were washed and restimulated in the absence or presence of the test compounds and the reference compounds with 2.5 ng/ml FGF-2 in M199-HEPES, penicillin/streptomycin, 10% NBCS, 10% human serum and 0.1% DMSO in triplicate wells for 5 (10% confluency) or 3 days (50 and 100% confluency), with or without the test compounds. The cell number was determined by image analysis (P. Koolwijk, 2001)
To investigate the mode of action of the compound on proliferating and non-proliferating HUVEC, experiments were performed on 10%, 50% and 100% confluent monolayers of HUVEC. The 10% and 50% confluent HUVEC monolayers represent the status of angiogenic endothelial cells able to proliferate and migrate when stimulated. The 100% HUVEC monolayers represent the quiescent character of the endothelial cells in the existing blood vessel. The 4-hour preincubation experiments were performed to be able to discriminate between general toxicity and the induction of apoptosis.

B16/F10 melanoma cells = assay: Mouse metastasis assay; format: in vivo, mice; conditions: for Colony Count (B16 melanoma lung colonies): day 14, mean ± SEM; for % Reduction of melanoma lung colonies vs vehicle: C57BL/6 mice
Description: Female C57BL/6 mice were supplied and delivered by Charles River UK Ltd. The animals were approximately 6 weeks of age at the start of the study. The body weights at the start of dosing were in the range 10-21 g. The mice were housed in solid-bottomed plastic cages, containing wood shavings, in groups of up to 10. During acclimatization, the rooms and cages were cleaned at regular intervals to maintain hygiene. The mice were fed an expanded rodent diet ad libitum and allowed free access to mains tap water. […] (McKay, 2002).
Data was expressed as means±SEM and analysed using appropriate statistical methods. Statistical significance was assumed when P<0.05.
Two separate studies were conducted: One was performed with Compound a (experiment 1) and one with Compound b (experiment 2). In each study there were 4 treatment groups. The treatment groups were as follows:
Treatments for groups 24 were administered orally, by gavage. The dose volume used was 20 ml/kg for groups 2 and 4 and 15 ml/kg for group 3.
C57BU6 mice were injected intravenously, via a tail vein, with 0.1 ml of a suspension of B16/F10 melanoma cells (approximately 3×10^5 cells/mouse) on day 0. With the exception of the untreated group, animals were dosed orally, by gavage, or intravenously, according to their allocated treatment group once daily, from day −2 to day 10 (13 administrations). The animals were killed on day 14 (14 days after injection of the tumour cells). The lungs from each animal were removed and weighed prior to fixing in Bouin's solution.

[1] = test system: HUVEC, fibroblasts, Mel 57 and T47D cells; assay: Cell-specificity assay: incorporation of [3H]thymidine; format: cell-based; conditions: bFGF-induced HUVEC and fibroblast proliferation vs NBCS-induced Mel 57 and T47D proliferation; FIG. 1
Protocol: Cell-Specificity Assay: Incorporation of [^3H]Thymidine
Confluent cultures of HUVEC, fibroblasts, Mel 57 and T47D cells were detached by trypsin/EDTA solution, and allowed to adhere and spread at an appropriate cell density on gelatine-coated dishes in M199-HEPES medium or DMEM-HEPES medium both supplemented with 10% heat-inactivated new born calve serum (NBCS) and penidillin/streptomycin. After 18 h the HUVEC and fibroblasts were stimulated with 2.5 ng/ml FGF-2 in M199-HEPES, penicillin/streptomycin, 10% NBCS and 0.1% DMSO in duplicate wells, with or without the test compounds. […] Subsequently, the cells were washed with PBS, [3H]-labelled DNA were fixed with methanol, and precipitated in 5% trichloroacetic-acid, and finally dissolved in 0.5 ml 0.3 M NaOH and counted in a liquid scintillation counter.
All outcome measures were measured in singular, i.e. one measurement per culture well. The proliferation of HUVEC, fibroblast, Mel 57, and T47D tumor cells was expressed as mean±range [3H]-thymidine incorporation (dpm) of duplicate wells.
The percentage of inhibition of FGF-2-induced HUVEC and fibroblast proliferation by the compounds was calculated as follows: [formula] […] The percentage of inhibition of the Mel 57 and T47D tumor cell proliferation by the compounds will be calculated as follows: [formula] […]

[2] = 60 mg/kg p.o. once daily day -2 to day 10, C57BL/6 mice
[3] = 80 mg/kg p.o. once daily day -2 to day 10, C57BL/6 mice

Row | Structure (SMILES) | neovascularisation in mice (percent inhibition) (neovascularisation; 5 mg/kg/day orally) | neovascularisation in mice (percent inhibition) (neovascularisation; 20 mg/kg/day orally) | No Effect Level (NOEL) (neovascularisation; oral, neovascularisation in mice) | inhibition of HUVEC proliferation (HUVEC; 4-hour preincubation, compound then removed for the rest of the stimulation period) | cytotoxicity (HUVEC morphology, floating dead cells) (HUVEC; 100% confluent monolayers, culture periods with the compound) | cytotoxicity (cell death, floating cells in the media) (HUVEC; HUVEC, 4-hour preincubation period) | inhibition of HUVEC proliferation (HUVEC; continuous presence of the compound, 10% confluent monolayers) | inhibition of HUVEC proliferation (HUVEC; continuous presence of the compound, 50% confluent monolayers) | inhibition of HUVEC proliferation (HUVEC; continuous presence of the compound, 100% confluent monolayers) | Colony Count (B16 melanoma lung colonies) (B16/F10 melanoma cells; [2]) | % Reduction of melanoma lung colonies vs vehicle (B16/F10 melanoma cells; 60 mg/kg p.o.) | Colony Count (B16 melanoma lung colonies) (B16/F10 melanoma cells; [3]) | % Reduction of melanoma lung colonies vs vehicle (B16/F10 melanoma cells; 80 mg/kg p.o.) | cell-specificity of inhibition of proliferation [1] | tolerability (signs of toxicity, body weight gain) (neovascularisation; mice, selected dose levels, oral)
1 | O=C(Nc1ccc([N+](=O)[O-])cc1)Nc1ccc(Br)cc1-c1nnn[nH]1 [Compound a, N-4-Nitrophenyl-N′-[4-bromo-2-(1-H-tetrazol-5-yl)phenyl]urea] | 15% | 28% | 5 mglkg/day | not able to inhibit HUVEC proliferation significantly | no change of HUVEC morphology and the amount of floating dead cells | No signs of any cytotoxicity | clear inhibitory effect | slightly observed | no effect | 64.68 ± 2.65 | 17% and 17.38% | 61.85 ± 2.89 | 21% | more potent inhibitor of the bFGF-induced HUVEC and fibroblast proliferation | –
2 | O=C(Nc1cc(C(F)(F)F)cc(C(F)(F)F)c1)Nc1ccc(Br)cc1-c1nnn[nH]1 [Compound b, N-3,5-Di(trifluoromethyl)phenyl-N′-[4-bromo-2-(1-H-tetrazol-5-yl)phenyl]urea] | – | – | – | – | – | – | – | – | – | 41.55 ± 9.55 | 36% and 36.45% | 36.65 ± 5.82 | 44% and 43.97% | – | no signs of toxicity or changes of the body weight gain

Reference: patent publication US20060058395A1, “Compounds useful for the treatment of diseases responsive to antiangiogenetic therapy” (NEUROSEARCH A/S, priority 2002, published 2006)
